For 45 molecules, IC50 results are on record in US10106501B2, “Nuclear receptor modulators” (AbbVie Inc., priority 2015, dated 2018).

This experiment has as its target T1, chimeric human RORγ-Gal4 receptor (Homo sapiens, UniProt P51449).
T1 sequence (P51449 269-508 limits assumed): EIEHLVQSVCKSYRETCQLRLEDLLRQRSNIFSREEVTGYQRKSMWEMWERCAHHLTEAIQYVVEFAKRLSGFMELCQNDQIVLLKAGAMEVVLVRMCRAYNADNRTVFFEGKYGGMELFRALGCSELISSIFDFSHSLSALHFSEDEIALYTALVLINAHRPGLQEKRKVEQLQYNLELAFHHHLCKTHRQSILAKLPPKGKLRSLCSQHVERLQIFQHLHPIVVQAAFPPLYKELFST
As to the kind of experiment: transient transactivation assay (RORγ-Gal4 luciferase reporter). The experiment is classed as cell-based. As to conditions: Cos-7 cells transfected with RORγ-Gal4 and 5Gal4 pGL3 TK Luc reporter; overnight incubation; T0901317 at 10^-5 M as reference; read-out: IC50. Background: In a reporter assay the amount or activity of a reporter protein is the signal.
Turning to `Cc1c(Br)ccc2c1nc(Cc1c(Cl)ccc(C(=O)N3CCOCC3)c1Cl)n2C` [Example CB, (3-((5-bromo-1,4-dimethyl-1H-benzo[d]imidazol-2-yl)methyl)-2,4-dichlorophenyl)(morpholino)methanone], the IC50 is 100 to 500 nM.
Turning to `Cc1cc(C(F)(F)F)nc2c1nc(Cc1c(Cl)ccc(C(=O)N3CCOCC3)c1Cl)n2C` [DC, (2,4-dichloro-3-((3,7-dimethyl-5-(trifluoromethyl)-3H-imidazo[4,5-b]pyridin-2-yl)methyl)phenyl)(morpholino)methanone], the IC50 lay within 1000 to 10000 nM.
For the molecule `Cc1cc(C(F)(F)F)cc2c1cc(C(=O)c1c(Cl)ccc(C(=O)N3CC[C@H](C(=O)O)[C@H](C)C3)c1Cl)n2C` (racemic) [AQ-3], the IC50 was below 100 nM.
The figure for `Cc1cc(C(F)(F)F)cc2c1nc(Cc1c(Cl)ccc(C(=O)N3CCC(CCO)CC3)c1Cl)n2C` [BJ-16] is 100 to 500 nM; for `COC1CCN(Cc2ccc(Cl)c(Cc3nc4c(C)cc(C(F)(F)F)cc4n3C)c2Cl)CC1` [BW-2] it is 100 to 500 nM; for `CNC(=O)c1cc(C)c2cc(Cc3c(Cl)ccc(C(=O)N4CCOCC4)c3Cl)n(C)c2c1` [Example FP, 2-[[2,6-dichloro-3-(morpholine-4-carbonyl)phenyl]methyl]-N,1,4-trimethyl-indole-6-carboxamide] it is below 100 nM.
With `Cc1cn(C(=O)c2c(Cl)ccc(C(=O)N3CC[C@H](C(=O)O)[C@H](C)C3)c2Cl)c2c(C)cc(C(F)(F)F)cc12` [DJ1-2] the figure was below 100 nM.
On to `Cc1cc(OC(F)F)cc2c1cc(Cc1c(Cl)ccc(C(=O)N3CCC(CC(=O)O)CC3)c1Cl)n2C` [Example FF, 2-(1-(2,4-dichloro-3-((6-(difluoromethoxy)-1,4-dimethyl-1H-indol-2-yl)methyl)benzoyl)piperidin-4-yl)acetic acid], for which the IC50 was below 100 nM.
With `Cc1cc(C#N)cc2c1nc(Cc1c(Cl)ccc(C(=O)N3CCC(CC(C)(C)O)CC3)c1Cl)n2C` [BN-16] the figure was 500 to 1000 nM.
Consider `Cc1cc(C(F)(F)F)cc2c1cc(Cc1c(Cl)ccc(C(=O)N3CCN(C(C)C(=O)O)CC3)c1Cl)n2C` (stereo not drawn) [Example U, 2-(4-(2,4-dichloro-3-((1,4-dimethyl-6-(trifluoromethyl)-1H-indol-2-yl)methyl)benzoyl)piperazin-1-yl)propanoic acid], for which the IC50 is below 100 nM.
The figure for `Cc1cc(C(F)(F)F)cc2c1nc(Cc1c(Cl)ccc(C(=O)N3CCN(C4COC4)CC3)c1Cl)n2C` [BJ-38] is 100 to 500 nM; for `Cc1cc(C#N)cc2c1cc(Cc1c(Cl)ccc(C(=O)NC3CCC(O)CC3)c1Cl)n2C` (stereo not drawn) [AA-22] it is 100 to 500 nM.
The figure for `Cc1cc(C#N)cc2c1cc(C(=O)c1c(Cl)ccc(C(=O)N3CC(O)C3)c1Cl)n2C` [AN-1] is 500 to 1000 nM.
With `Cc1cc(C(F)(F)F)nc2c1cc(Cc1c(Cl)ncc(C(=O)N3CCC(O)CC3)c1Cl)n2C` [DO, (4,6-dichloro-5-((1,4-dimethyl-6-(trifluoromethyl)-1H-pyrrolo[2,3-b]pyridin-2-yl)methyl)pyridin-3-yl)(4-hydroxypiperidin-1-yl)methanone] the figure was below 100 nM; with `Cc1cc(C#N)cc2c1cc(Cc1c(Cl)ccc(C(=O)NC3CCOCC3)c1Cl)n2C` [AA-23], 500 to 1000 nM.
For `Cc1cc(C#N)cc2c1nc(Cc1c(Cl)ccc(C(=O)N3CCN(C4COC4)CC3)c1Cl)n2C` [BN-11], the IC50 is 500 to 1000 nM.
For `Cc1cc(C#N)cc2c1cc(Cc1c(Cl)cnc(C(=O)N3CCC(C4COC4)CC3)c1Cl)n2C` [BF-1], the IC50 is below 100 nM.
For the molecule `Cc1cc(C(F)(F)F)cn2c(C)c(Cc3c(Cl)ccc(C(=O)N4CCC(C(C)O)CC4)c3Cl)nc12` (stereo not drawn) [CT-11], the IC50 lay in the range of 100 to 500 nM.
As for `COCC1CCN(Cc2ccc(Cl)c(Cc3nc4c(C)cc(C(F)(F)F)cc4n3C)c2Cl)CC1` [BW-3], the IC50 lay within 100 to 500 nM.
With `Cc1cc(C#N)cc2c1cc(Cc1c(Cl)ccc(O[C@H]3C[C@@H](C(=O)O)C3)c1Cl)n2C` [Example AH1, cis-3-(2,4-dichloro-3-((6-cyano-1,4-dimethyl-1H-indol-2-yl)methyl)phenoxy)cyclobutanecarboxylic acid] the figure was 500 to 1000 nM; with `Cc1cc(C#N)nn2c(C)c(Cc3c(Cl)ccc(C(=O)N4CCOCC4)c3Cl)nc12` [DA, 2-(2,6-dichloro-3-(morpholine-4-carbonyl)benzyl)-3,8-dimethylimidazo[1,2-b]pyridazine-6-carbonitrile], 1000 to 10000 nM.
Take `Cc1cc(C(F)(F)F)cc2c1nc(Cc1c(Cl)ccc(CN3CCCC(O)C3)c1Cl)n2C` (stereo not drawn) [BW-5]: the IC50 lay within 100 to 500 nM.
With `Cc1cc(C(F)(F)F)cc2c1nc(Cc1c(Cl)ccc(C(=O)N3CCC(CC(=O)O)CC3)c1Cl)n2C` [Example BU, 2-(1-(2,4-dichloro-3-((1,4-dimethyl-6-(trifluoromethyl)-1H-benzo[d]imidazol-2-yl)methyl)benzoyl)piperidin-4-yl)acetic acid] the figure was below 100 nM; with `O=C(O)CC1CCN(C(=O)c2ccc(Cl)c(Cn3ccc4cc(C(F)(F)F)ccc43)c2Cl)CC1` [EI-4], below 100 nM.
With `Cc1cn(Cc2c(Cl)ccc(C(=O)N3CCOCC3)c2Cl)c2c(C)nc(C(F)(F)F)cc12` [ET, (2,4-dichloro-3-((3,7-dimethyl-5-(trifluoromethyl)-1H-pyrrolo[2,3-c]pyridin-1-yl)methyl)phenyl)(morpholino)methanone], the IC50 was below 100 nM.
As to `Cc1cc(C#N)cc2c1cc(Cc1c(Cl)ncc(C(=O)N3CCC4(CCOC4)CC3)c1Cl)n2C` [Example FB, 2-((2,4-dichloro-5-(2-oxa-8-azaspiro[4.5]decane-8-carbonyl)pyridin-3-yl)methyl)-1,4-dimethyl-1H-indole-6-carbonitrile], the IC50 was below 100 nM.
With `Cc1cc(C#N)cc2c1cc(Cc1c(Cl)ccc(C(=O)N3CCC(N(C)C)CC3)c1Cl)n2C` [AA-6], the IC50 lay in the range of 100 to 500 nM.
For the molecule `Cc1cc(C(F)(F)F)cc2c1cc(C(=O)c1c(Cl)ccc(C(=O)N3CC[C@H](C(=O)O)[C@H](C)C3)c1Cl)n2C` [AQ-4], the IC50 was below 100 nM.
`Cc1cc(C(F)(F)F)cc2c1cc(Cc1c(Cl)ccc(C(=O)N3CCC(S(C)(=O)=O)CC3)c1Cl)n2C` [Example A1-11]: the IC50 is below 100 nM.
The figure for `Cc1cn(Cc2c(Cl)ccc(C(=O)N3CC[C@@H](C(=O)O)[C@@H](C)C3)c2Cl)c2c(C)cc(OC(F)(F)F)cc12` [EG-2] is below 100 nM; for `Cc1cc(C(F)(F)F)cc2c1cc(Cc1c(Cl)ccc(C(=O)N3CCC(C(=O)O)CC3)c1Cl)n2C` [B, 1-(2,4-dichloro-3-((1,4-dimethyl-6-(trifluoromethyl)-1H-indol-2-yl)methyl)benzoyl)piperidine-4-carboxylic acid] it is below 100 nM; for `Cc1cc(C(F)(F)F)cc2c1cc(Cc1c(Cl)ncc(C(=O)N3CCC(O)(CCO)CC3)c1Cl)n2C` [BH-2] it is 100 to 500 nM.
With `CC(=O)Nc1cc(C)c2cc(Cc3c(Cl)ccc(C(=O)N4CCOCC4)c3Cl)n(C)c2c1` [Example FK, N-(2-(2,6-dichloro-3-(morpholine-4-carbonyl)benzyl)-1,4-dimethyl-1H-indol-6-yl)acetamide] the figure was below 100 nM; with `Cn1c(Cc2c(Cl)ccc(C(=O)N3CCC(CC(=O)O)CC3)c2Cl)cc2c(F)cc(C(F)(F)F)cc21` [Example FE, 2-(1-(2,4-dichloro-3-((4-fluoro-1-methyl-6-(trifluoromethyl)-1H-indol-2-yl)methyl)benzoyl)piperidin-4-yl)acetic acid], below 100 nM; with `CC(C)c1ccc2c(ccn2Cc2c(Cl)ccc(C(=O)N3CCC(CC(=O)O)CC3)c2Cl)c1` [EI-1], below 100 nM.
The figure for `Cc1ccc(C(=O)N2CCOCC2)c(C)c1Cc1cc2c(C)cc(C#N)cc2n1C` [Example AE, 2-(2,6-dimethyl-3-(morpholine-4-carbonyl)benzyl)-1,4-dimethyl-1H-indole-6-carbonitrile] is 100 to 500 nM; for `COCCC1CCN(C(=O)c2ccc(Cl)c(Cc3nc4c(C)cc(C#N)cc4n3C)c2Cl)CC1` [BN-3] it is 100 to 500 nM.
Consider `Cc1cc(C(F)(F)F)cc2c1nc(Cc1c(Cl)ccc(CN3CCC(CC(C)(C)O)CC3)c1Cl)n2C` [BW-12], for which the IC50 is 500 to 1000 nM.
Regarding `Cc1cc(C(F)(F)F)cc2c1cc(Cc1c(Cl)ccc(C(=O)N3CCCC(C(=O)O)C3)c1Cl)n2C` (stereo not drawn) [Example B-11], the IC50 was 100 to 500 nM.
The figure for `Cc1cc(C(F)(F)F)cc2c1nc(Cc1c(Cl)ccc(CN3CCC(C(C)(C)CO)CC3)c1Cl)n2C` [BW-6] is 100 to 500 nM; for `Cc1cc(C#N)cc2c1nc(Cc1c(Cl)ccc(C(=O)N3CCOCC3)c1Cl)n2C(C)C` [CH, 2-(2,6-dichloro-3-(morpholine-4-carbonyl)benzyl)-1-isopropyl-4-methyl-1H-benzo[d]imidazole-6-carbonitrile] it is below 100 nM; for `Cc1ccc(C(=O)N2CCOCC2)c(C)c1Cc1nc2c(C)cc(Br)cc2n1C` [Example BR, (3-((6-bromo-1,4-dimethyl-1H-benzo[d]imidazol-2-yl)methyl)-2,4-dimethylphenyl)(morpholino)methanone] it is 100 to 500 nM.
The figure for `Cc1cn(Cc2c(Cl)ncc(C(=O)N3CCC(CC(=O)O)CC3)c2Cl)c2c(C)cc(C(F)(F)F)cc12` [ER, 2-(1-(4,6-dichloro-5-((3,7-dimethyl-5-(trifluoromethyl)-1H-indol-1-yl)methyl)nicotinoyl)piperidin-4-yl)acetic acid] is below 100 nM.
Regarding `Cc1cc(C(F)(F)F)cc2c1nc(Cc1c(Cl)ccc(C(=O)N3CCC(N(C)C)CC3)c1Cl)n2C` [BJ-30], the IC50 lay within 100 to 500 nM.
In the case of `Cc1cc(OC(F)F)cc2c1cc(Cc1c(Cl)ccc(C(=O)N3CCC(C(=O)O)CC3)c1Cl)n2C` [FF-2], the IC50 was below 100 nM.

Usually IC50 stands for the concentration that gives 50% inhibition.
